Laboratory results taken from paper PMC9671096 (Molecular pharmaceutics, 2021).
One block for each compound: values may come before it. Where a SMILES comes first, the peptide text is derived from it. The star is where a group is joined. Cbz = O=C(OCc1ccccc1)*

Columns and labels:
ERs = type: binding, human; conditions: IC50 of 17β-E2 divided by IC50 of test compound; MCF-7 cytosol
HiBiT-ERα = biological target: T1, HiBiT-ERα (Homo sapiens, UniProt P03372); type: cell-based; conditions: for effect on UI-EP001/UI-EP002-mediated degradation of HiBiT-ERα: with 100 μM UI-EP001 or UI-EP002, 1 hour, MG132 10 μM, chloroquine 100 μM, E2 or aldosterone 100 nM-100 μM
T1 sequence (P03372 1-595): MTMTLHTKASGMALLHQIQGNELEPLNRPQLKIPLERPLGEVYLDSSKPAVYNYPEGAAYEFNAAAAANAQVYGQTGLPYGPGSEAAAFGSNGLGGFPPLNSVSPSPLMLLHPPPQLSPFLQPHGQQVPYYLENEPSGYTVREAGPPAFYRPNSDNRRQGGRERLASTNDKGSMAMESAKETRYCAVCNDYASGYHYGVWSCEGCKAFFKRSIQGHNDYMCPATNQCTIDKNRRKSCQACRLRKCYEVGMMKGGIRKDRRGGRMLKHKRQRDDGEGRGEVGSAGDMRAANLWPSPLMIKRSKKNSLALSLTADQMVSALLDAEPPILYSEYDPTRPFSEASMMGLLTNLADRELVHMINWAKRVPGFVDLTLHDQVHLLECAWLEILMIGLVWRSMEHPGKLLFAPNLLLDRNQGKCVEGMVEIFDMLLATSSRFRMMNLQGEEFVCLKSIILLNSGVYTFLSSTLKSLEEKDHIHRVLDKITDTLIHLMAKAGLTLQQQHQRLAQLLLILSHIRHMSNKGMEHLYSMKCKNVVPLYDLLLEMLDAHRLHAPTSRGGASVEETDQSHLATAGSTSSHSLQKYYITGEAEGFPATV

HiBiT-GPER = HiBiT-GPER (Homo sapiens, UniProt Q99527); type: cell-based; conditions: for effect on UI-EP001/UI-EP002-mediated degradation of HiBiT-GPER: with 100 μM UI-EP001 or UI-EP002, 1 hour, MG132 10 μM, chloroquine 100 μM, E2 or aldosterone 100 nM-100 μM
HCC-1806 = assay: Cell cycle analysis; type: cell-based, human; conditions: HCC-1806, 10 μM, 24 hours
GPER [1] = biological target: T2, GPER (Homo sapiens, UniProt Q99527); assay: Intact cell competitive binding assay with E2-FITC tracer; conditions: intact SKBR3 cells, concentrations as high as 10 μM
GPER [2] = biological target: T2, GPER; assay: Immunostaining of endogenous GPER in MCF-7 cells; type: cell-based; conditions: 1 hour
ERα = biological target: T3, ERα (Homo sapiens, UniProt P03372); assay: Immunostaining of endogenous ERα in MCF-7 cells; type: cell-based; conditions: 1 hour
T3 sequence (P03372 1-595): T1 sequence (P03372 1-595)

MDA-MB-231 = assay: Cell cycle analysis; type: cell-based, human; conditions: MDA-MB-231, 10 μM, 24 hours
SKBR3 = assay: Cell cycle analysis; type: cell-based, human; conditions: SKBR3, 10 μM, 24 hours
MCF-7 = assay: Cell cycle analysis; type: cell-based, human; conditions: MCF-7, 10 μM, 24 hours
ERβ = ERβ (Homo sapiens, UniProt Q92731); assay: Immunostaining of endogenous ERβ in MCF-7 cells; type: cell-based; conditions: 1 hour
ERβ, sequence (Q92731 whole entry): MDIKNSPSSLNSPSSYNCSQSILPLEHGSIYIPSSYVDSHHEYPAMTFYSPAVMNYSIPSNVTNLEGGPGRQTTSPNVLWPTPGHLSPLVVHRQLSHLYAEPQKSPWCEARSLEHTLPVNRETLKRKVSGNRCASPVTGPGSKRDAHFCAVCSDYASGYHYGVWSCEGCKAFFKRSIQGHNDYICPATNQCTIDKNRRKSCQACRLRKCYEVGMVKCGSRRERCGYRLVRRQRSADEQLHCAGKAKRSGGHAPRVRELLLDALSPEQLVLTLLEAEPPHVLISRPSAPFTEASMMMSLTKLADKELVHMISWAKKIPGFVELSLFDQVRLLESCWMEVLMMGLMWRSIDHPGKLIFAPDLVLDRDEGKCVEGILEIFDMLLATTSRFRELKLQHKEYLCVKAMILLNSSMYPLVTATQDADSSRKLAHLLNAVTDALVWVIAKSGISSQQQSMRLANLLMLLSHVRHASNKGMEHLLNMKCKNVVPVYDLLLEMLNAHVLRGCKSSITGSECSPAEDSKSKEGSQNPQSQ

HiBiT-GPER, sequence (Q99527 whole entry): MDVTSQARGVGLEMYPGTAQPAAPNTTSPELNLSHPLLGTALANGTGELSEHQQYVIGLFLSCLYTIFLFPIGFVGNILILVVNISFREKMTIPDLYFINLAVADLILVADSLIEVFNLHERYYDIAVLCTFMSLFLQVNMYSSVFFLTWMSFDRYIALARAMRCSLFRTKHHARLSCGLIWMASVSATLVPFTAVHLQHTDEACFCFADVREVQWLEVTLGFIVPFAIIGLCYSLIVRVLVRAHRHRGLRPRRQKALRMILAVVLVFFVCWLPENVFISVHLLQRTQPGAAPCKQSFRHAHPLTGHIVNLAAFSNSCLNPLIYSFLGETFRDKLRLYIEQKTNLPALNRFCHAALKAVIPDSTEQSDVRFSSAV
T2 sequence (Q99527 whole entry): as above

ERs RBA% (ERs): 100.0%
Compound: C[C@]12CC[C@@H]3c4ccc(O)cc4CC[C@H]3[C@@H]1CC[C@@H]2O [Estradiol, 17β-estradiol]

Compound: CC(C)C[C@@H](C=O)NC(=O)[C@H](CC(C)C)NC(=O)[C@H](CC(C)C)NC(=O)OCc1ccccc1 [MG132] (Cbz-Leu-Leu-Leu-aldehyde)
effect on UI-EP001/UI-EP002-mediated degradation of HiBiT-ERα (HiBiT-ERα): reversed
effect on UI-EP001/UI-EP002-mediated degradation of HiBiT-GPER (HiBiT-GPER): reversed

decrease of HiBiT-ERα (HiBiT-ERα; 100 μM, 1 hour): did not show any significant decrease
competition for E2-FITC binding to GPER (GPER [1]): unable to compete
reduction of intracellular GPER (GPER [2]): did not impact
reduction of nuclear ERα (ERα): did not impact
reduction of nuclear ERβ (ERβ): did not impact
decrease of HiBiT-GPER (HiBiT-GPER; 100 μM, 1 hour): did not show any significant decrease
receptor present following treatment (HiBiT-GPER; 100 μM, 8 hrs, text does not say which receptor (HiBiT-GPER or HiBiT-ER)): 83%
Compound: Cc1ncsc1-c1ccc(CNC(=O)C2CC(O)CN2C(=O)C(NC(=O)COCCOCCOCCOCC(=O)O)C(C)(C)C)cc1 (centres unmarked) [Partial PROTAC]
cell cycle distribution shift (G2/M arrest) (HCC-1806): much less significant shift
cell cycle distribution shift (G2/M arrest) (MDA-MB-231): much less significant shift
cell cycle distribution shift (G2/M arrest) (SKBR3): much less significant shift
cell cycle distribution shift (G2/M arrest) (MCF-7): much less significant shift

effect on UI-EP001/UI-EP002-mediated degradation of HiBiT-ERα (HiBiT-ERα): not aldosterone was capable of blocking
effect on UI-EP001/UI-EP002-mediated degradation of HiBiT-GPER (HiBiT-GPER): not aldosterone was capable of blocking
Compound: C[C@]12CCC(=O)C=C1CC[C@@H]1[C@@H]2[C@@H](O)C[C@]2(C=O)[C@@H](C(=O)CO)CC[C@@H]12 [aldosterone]

effect on UI-EP001/UI-EP002-mediated degradation of HiBiT-GPER (HiBiT-GPER): had no such effect
Compound: CCN(CC)CCCC(C)Nc1ccnc2cc(Cl)ccc12 (centres unmarked) [chloroquine, chloroquine diphosphate]
